# Measured values: patent US5723494A, “Derivatives of glutamic and aspartic acids, a method of preparing them, and their use as drugs for enhancing memory and learning” (priority 1993, dated 1998)
# What was measured:
# [1] = Acute toxicity (LD50) in the mouse; conditions: in vivo
# [2] = Memory-enhancement activity in the active avoidance test in the rat; format: in vivo, rat (male Wistar); conditions: for % variation vs controls, avoidance learning / % variation vs controls, avoidance memory / % variation vs controls, escape response / % variation vs controls, shock response / % variation vs controls, total avoidance response / Average % avoidance learning, last 10 TR / Average % avoidance memory, first 10 TR/40 TR / Average % escape response / Average % shock response / Average % total avoidance response, 40 trials: fifth day
# Description: 3) Memory-enhancement activity in the "active avoidance" test in the rat
# Male Wistar rats which weighed about 200 g and had not fasted were used. The method consisted of making the animal understand that, in order to avoid a shock, it must go from one compartment of the equipment used (a shuttle box) to the other. For this reason it is defined as active avoidance (because the animal takes action to avoid the punishment).
# In this test it is also possible to discriminate between two different parameters: memory and learning.
# The equipment consisted of a cage divided into two portions by a wall with an opening at floor level to enable the animal to go from one portion of the cage to the other.
# The reinforcement, that is, the reason which forced the rat to become conditioned to the sound and to the light, consisted of an electrical stimulus coming from the grid floor of the cage (an Unconditioned stimulus). The floor of the cage was constituted by a metal grid for the passage of the current and could rock so that, each time the rat passed through the dividing hole, the floor tilted, due to its weight, interrupting the current.
# The test lasted for five days. On the first day, the animals were subjected to the first session of 40 cycles with an interval of 30 sec between cycles (duration of the session=20 minutes).
# For each 30 sec cycle, a light stimulus and a sound stimulus lasting for 3 seconds were applied, followed by the 0.4 mA shock, which also lasted for 3 sec.
# At the end of the first day, the rats were selected randomly in homogeneous groups and treated with the product under test or with physiological solutions (controls).
# On subsequent days, the rats underwent the first treatment 15 minutes before the session and the second treatment at the end of the day. In 5 days of tests the animal thus underwent 8 treatments in total.
# The 40 cycles were divided into 4 sessions each of 10 cycles for the 5 days' duration of the test.
# The performance of each animal was evaluated as: % shock response, % escape response; % total avoidance response (these refer to all 40 cycles of each day); memory, as % of the avoidance responses in the first session of each day (the first 10 cycles); learning: as % of avoidance responses in the fourth session of each day (the last 10 cycles).
# All the % were calculated on regression lines calculated on the basis of the responses obtained daily for each individual parameter, on the fifth (last) day of the experiment.
# The results are expressed as the percentage variation of the averages of the individual responses obtained for the treated groups in comparison with the control group. The results thus calculated are given in Table 3 below, which gives the statistical analysis between the treatment groups against the controls, carried out by analysis of the relative variance with respect to the overall results for the 5 days.
# [3] = Antidepressant activity in the behavioural despair test in the mouse; format: in vivo, mouse (male CD1)
structure (smiles),measurement,setting,value
"CC1(C)CCC(NC(=O)[C@@H](N)CCC(=O)O)CC1 [Compound 23, 1-(4,4-dimethylcyclohexyl)-L-isoglutamine[4-amino-5-(4',4'-dimethylcyclohexylamine)-5-oxopentanoic acid (S)]]",LD50,[1]; IV,290 mg/kg
same,LD50,"[1]; po, OS",1300 mg/kg
same,"% variation vs controls, avoidance learning",[2]; 1 mg/kg i.p. 2/day,+17.2%
same,"% variation vs controls, avoidance memory",[2]; 1 mg/kg i.p. 2/day,-16.7%
same,"% variation vs controls, escape response",[2]; 1 mg/kg i.p. 2/day,-11.1%
same,"% variation vs controls, shock response",[2]; 1 mg/kg i.p. 2/day,-8.6%
same,"% variation vs controls, total avoidance response",[2]; 1 mg/kg i.p. 2/day,+33.3%
same,"Average % avoidance learning, last 10 TR",[2]; 1 mg/kg i.p. 2/day,34%
same,"Average % avoidance memory, first 10 TR/40 TR",[2]; 1 mg/kg i.p. 2/day,10%
same,Average % escape response,[2]; 1 mg/kg i.p. 2/day,8%
same,Average % shock response,[2]; 1 mg/kg i.p. 2/day,64%
same,"Average % total avoidance response, 40 trials",[2]; 1 mg/kg i.p. 2/day,26%
same,"% variation vs controls, avoidance learning",[2]; 3 mg/kg i.p. 2/day,+82.7%
same,"% variation vs controls, avoidance memory",[2]; 3 mg/kg i.p. 2/day,+142%
same,"% variation vs controls, escape response",[2]; 3 mg/kg i.p. 2/day,+144%
same,"% variation vs controls, shock response",[2]; 3 mg/kg i.p. 2/day,-51.4%
same,"% variation vs controls, total avoidance response",[2]; 3 mg/kg i.p. 2/day,+109%
same,"Average % avoidance learning, last 10 TR",[2]; 3 mg/kg i.p. 2/day,53%
same,"Average % avoidance memory, first 10 TR/40 TR",[2]; 3 mg/kg i.p. 2/day,29%
same,Average % escape response,[2]; 3 mg/kg i.p. 2/day,22%
same,Average % shock response,[2]; 3 mg/kg i.p. 2/day,34%
same,"Average % total avoidance response, 40 trials",[2]; 3 mg/kg i.p. 2/day,44%
same,"% variation vs controls, avoidance learning",[2]; 10 mg/kg i.p. 2/day,+145%
same,"% variation vs controls, avoidance memory",[2]; 10 mg/kg i.p. 2/day,+183%
same,"% variation vs controls, escape response",[2]; 10 mg/kg i.p. 2/day,+241%
same,"% variation vs controls, shock response",[2]; 10 mg/kg i.p. 2/day,-81.4%
same,"% variation vs controls, total avoidance response",[2]; 10 mg/kg i.p. 2/day,+166%
same,"Average % avoidance learning, last 10 TR",[2]; 10 mg/kg i.p. 2/day,71%
same,"Average % avoidance memory, first 10 TR/40 TR",[2]; 10 mg/kg i.p. 2/day,34%
same,Average % escape response,[2]; 10 mg/kg i.p. 2/day,31%
same,Average % shock response,[2]; 10 mg/kg i.p. 2/day,13%
same,"Average % total avoidance response, 40 trials",[2]; 10 mg/kg i.p. 2/day,56%
same,Shock responses (in words),"[2]; rat, i.p.",greatly reduced
same,Total avoidance responses (in words),"[2]; rat, i.p.",significantly increases the total avoidance responses in a dose-dependent manner
same,inhibition in vivo at 3 mg/kg,"[3]; 5 min, 3 mg/kg IP, 5 minutes, read-out: Decrease in immobility (as %) vs the controls",14%
same,inhibition in vivo at 10 mg/kg,"[3]; 5 min, 10 mg/kg IP, 5 minutes, read-out: Decrease in immobility (as %) vs the controls",31%
same,inhibition in vivo at 30 mg/kg,"[3]; 5 min, 30 mg/kg IP, 5 minutes, read-out: Decrease in immobility (as %) vs the controls",94%
same,Antidepressant activity (in words),[3]; IP,"antidepressant effect of the same order of magnitude as the comparison drug used, amitriptyline"
same,ED50,"[3]; IP, read-out: ED50 (dose antagonising immobility time by 50%)",11.1 mg/kg
